Reference: PubChem BioAssay (NCI)
Several values for one entry are separate records, joined by “and”; a condition that tells them apart may be missing. Equal values may be shown once.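 Results reflect a 48-hour exposure of cells in 96-well plates to compound at five concentrations. GI50 is the concentration that inhibits growth by half. Definition used: TGI = concentration required for complete inhibition of growth.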

Columns and labels:
Assay in all cases: growth of human tumour cells (NCI), 48 h
786-0 renal = system: 786-0 renal
A498 renal = system: A498 renal
A549 NSCLC = system: A549 NSCLC
ACHN renal = system: ACHN renal
BT-549 breast = system: BT-549 breast
CAKI-1 renal = system: CAKI-1 renal
CCRF-CEM leukemia = system: CCRF-CEM leukemia
COLO 205 colon = system: COLO 205 colon
DU-145 prostate = system: DU-145 prostate
EKVX NSCLC = system: EKVX NSCLC
HCC-2998 colon = system: HCC-2998 colon
HCT-116 colon = system: HCT-116 colon
HCT-15 colon = system: HCT-15 colon
HL-60(TB) leukemia = system: HL-60(TB) leukemia
HOP-62 NSCLC = system: HOP-62 NSCLC
HOP-92 NSCLC = system: HOP-92 NSCLC
HS 578T breast = system: HS 578T breast
HT29 colon = system: HT29 colon
IGROV1 ovarian = system: IGROV1 ovarian
K-562 leukemia = system: K-562 leukemia
KM12 colon = system: KM12 colon
LOX IMVI melanoma = system: LOX IMVI melanoma
M14 melanoma = system: M14 melanoma
MALME-3M melanoma = system: MALME-3M melanoma
MCF7 breast = system: MCF7 breast
MDA-MB-231 breast = system: MDA-MB-231 breast
MDA-MB-435 = system: MDA-MB-435
MDA-N = system: MDA-N
MOLT-4 leukemia = system: MOLT-4 leukemia
NCI-H226 lung = system: NCI-H226 lung
NCI-H23 lung = system: NCI-H23 lung
NCI-H460 lung = system: NCI-H460 lung
NCI-H522 lung = system: NCI-H522 lung
NCI/ADR-RES ovarian = system: NCI/ADR-RES ovarian
OVCAR-3 ovarian = system: OVCAR-3 ovarian
OVCAR-4 ovarian = system: OVCAR-4 ovarian
OVCAR-5 ovarian = system: OVCAR-5 ovarian
OVCAR-8 ovarian = system: OVCAR-8 ovarian
PC-3 prostate = system: PC-3 prostate
RPMI-8226 leukemia = system: RPMI-8226 leukemia
RXF 393 renal = system: RXF 393 renal
SF-268 CNS = system: SF-268 CNS
SF-295 CNS = system: SF-295 CNS
SF-539 CNS = system: SF-539 CNS
SK-MEL-2 melanoma = system: SK-MEL-2 melanoma
SK-MEL-28 melanoma = system: SK-MEL-28 melanoma
SK-MEL-5 melanoma = system: SK-MEL-5 melanoma
SK-OV-3 ovarian = system: SK-OV-3 ovarian
SN12C renal = system: SN12C renal
SNB-19 CNS = system: SNB-19 CNS
SNB-75 CNS = system: SNB-75 CNS
SR leukemia = system: SR leukemia
SW-620 colon = system: SW-620 colon
T-47D breast = system: T-47D breast
TK-10 renal = system: TK-10 renal
U251 CNS = system: U251 CNS
UACC-257 melanoma = system: UACC-257 melanoma
UACC-62 melanoma = system: UACC-62 melanoma
UO-31 renal = system: UO-31 renal

c1ccc(-c2cccc(-c3ccccn3)n2)nc1
GI50 (786-0 renal): 0.113 µM | TGI (786-0 renal): 2.87 µM and 2.03 µM | GI50 (A498 renal): 1.38 µM | TGI (A498 renal): 2.31 µM and 3.27 µM | GI50 (A549 NSCLC): 0.225 µM | TGI (A549 NSCLC): 4.91 µM and 13 µM | GI50 (ACHN renal): 0.0567 µM | TGI (ACHN renal): 1.75 µM and 1.89 µM | GI50 (BT-549 breast): 0.225 µM | TGI (BT-549 breast): 13.6 µM | TGI (CAKI-1 renal): 1.61 µM | GI50 (CCRF-CEM leukemia): 0.058 µM | TGI (CCRF-CEM leukemia): > 100 µM | GI50 (COLO 205 colon): 0.0376 µM | TGI (COLO 205 colon): 1.67 µM and 5.84 µM | GI50 (DU-145 prostate): 0.0863 µM | TGI (DU-145 prostate): 15.6 µM | GI50 (EKVX NSCLC): 0.111 µM | TGI (EKVX NSCLC): 4.89 µM and 10.9 µM | GI50 (HCC-2998 colon): 0.0944 µM | TGI (HCT-116 colon): 1.56 µM | GI50 (HCT-15 colon): 0.0546 µM | TGI (HCT-15 colon): 1.4 µM and 2.98 µM | GI50 (HL-60(TB) leukemia): 0.112 µM | GI50 (HOP-62 NSCLC): 0.13 µM | TGI (HOP-62 NSCLC): 1.72 µM and 12.8 µM | GI50 (HOP-92 NSCLC): 3.57 µM | TGI (HOP-92 NSCLC): 19.8 µM | GI50 (HS 578T breast): 2.55 µM | TGI (HS 578T breast): > 10 µM and 47.6 µM | GI50 (HT29 colon): 0.0848 µM | TGI (HT29 colon): 3.05 µM and 15.7 µM | GI50 (IGROV1 ovarian): 0.0765 µM | TGI (IGROV1 ovarian): 2.97 µM and 11.7 µM | TGI (K-562 leukemia): > 100 µM | GI50 (KM12 colon): 0.0751 µM | TGI (KM12 colon): 2.27 µM and 13.7 µM | GI50 (LOX IMVI melanoma): 0.0573 µM | TGI (LOX IMVI melanoma): 12.5 µM | GI50 (M14 melanoma): 0.0924 µM | TGI (M14 melanoma): 0.434 µM and 1.07 µM | TGI (MALME-3M melanoma): 1.11 µM and 3.48 µM | TGI (MCF7 breast): > 10 µM | GI50 (MDA-MB-231 breast): 0.086 µM | TGI (MDA-MB-231 breast): 1.89 µM and 15.2 µM | TGI (MDA-MB-435): 2.28 µM and 18.4 µM | TGI (MDA-N): 2.19 µM | GI50 (MOLT-4 leukemia): 0.0658 µM | TGI (MOLT-4 leukemia): > 100 µM | GI50 (NCI-H226 lung): 0.275 µM | TGI (NCI-H226 lung): 4.85 µM | TGI (NCI-H23 lung): > 10 µM and 64.2 µM | GI50 (NCI-H460 lung): 0.0604 µM | TGI (NCI-H460 lung): 1.35 µM and 2.51 µM | TGI (NCI-H522 lung): > 10 µM and 19.3 µM | GI50 (NCI/ADR-RES ovarian): 0.161 µM | TGI (NCI/ADR-RES ovarian): 1.22 µM and 8.76 µM | GI50 (OVCAR-3 ovarian): 0.11 µM | GI50 (OVCAR-4 ovarian): 0.0839 µM | TGI (OVCAR-4 ovarian): 3.48 µM and 13.7 µM | GI50 (OVCAR-5 ovarian): 0.403 µM | TGI (OVCAR-5 ovarian): 3.72 µM and 22 µM | GI50 (OVCAR-8 ovarian): 0.145 µM | GI50 (PC-3 prostate): 0.17 µM | TGI (PC-3 prostate): 3.76 µM and 15.4 µM | TGI (RPMI-8226 leukemia): > 10 µM and 95.1 µM | TGI (RXF 393 renal): 1.41 µM and 7.32 µM | GI50 (SF-268 CNS): 0.0814 µM | TGI (SF-268 CNS): > 10 µM and 15.8 µM | GI50 (SF-295 CNS): 0.0785 µM | TGI (SF-295 CNS): 0.791 µM and 3.87 µM | GI50 (SF-539 CNS): 0.243 µM | TGI (SF-539 CNS): 2.07 µM and 13.3 µM | GI50 (SK-MEL-2 melanoma): 0.425 µM | TGI (SK-MEL-2 melanoma): 3.64 µM and 18.6 µM | GI50 (SK-MEL-28 melanoma): 0.182 µM | TGI (SK-MEL-28 melanoma): 3.25 µM and 15 µM | GI50 (SK-MEL-5 melanoma): 0.122 µM | TGI (SK-MEL-5 melanoma): 0.68 µM and 1.18 µM | GI50 (SK-OV-3 ovarian): 0.0895 µM | TGI (SK-OV-3 ovarian): 2.05 µM and 2.42 µM | GI50 (SN12C renal): 0.22 µM | TGI (SN12C renal): 9.77 µM and 16.2 µM | GI50 (SNB-19 CNS): 0.293 µM | TGI (SNB-19 CNS): > 10 µM and 16.7 µM | GI50 (SNB-75 CNS): 0.234 µM | TGI (SNB-75 CNS): > 10 µM and 17.7 µM | GI50 (SR leukemia): 0.06 µM | GI50 (SW-620 colon): 0.198 µM | TGI (SW-620 colon): 4.54 µM and 14 µM | GI50 (T-47D breast): 0.343 µM | TGI (T-47D breast): > 10 µM and 12.7 µM | GI50 (TK-10 renal): 0.0595 µM | TGI (TK-10 renal): 3 µM and 7.89 µM | GI50 (U251 CNS): 0.0901 µM | TGI (U251 CNS): 2.86 µM and 13.4 µM | GI50 (UACC-257 melanoma): 0.337 µM | TGI (UACC-257 melanoma): 1.65 µM and 5.46 µM | GI50 (UACC-62 melanoma): 0.243 µM | TGI (UACC-62 melanoma): 2.93 µM and 4.24 µM | GI50 (UO-31 renal): 0.0373 µM | TGI (UO-31 renal): 0.425 µM and 1.29 µM

Cc1ccc(S(=O)(=O)/N=C(\NO)Nc2ccc(Cl)c(Cl)c2)cc1
TGI (786-0 renal): 16.2 µM | TGI (A498 renal): 23.7 µM | TGI (A549 NSCLC): 26.9 µM | TGI (ACHN renal): 24.9 µM | TGI (BT-549 breast): 23.8 µM | TGI (CAKI-1 renal): 19.2 µM | TGI (CCRF-CEM leukemia): 15.9 µM | TGI (COLO 205 colon): 30.8 µM | TGI (DU-145 prostate): 24.6 µM | TGI (EKVX NSCLC): 19.9 µM | TGI (HCC-2998 colon): 4.93 µM | TGI (HCT-116 colon): 17.7 µM | TGI (HCT-15 colon): 28.4 µM | TGI (HL-60(TB) leukemia): 5.42 µM | TGI (HOP-62 NSCLC): 27.4 µM | TGI (HOP-92 NSCLC): 11.8 µM | TGI (HS 578T breast): 27.3 µM | TGI (HT29 colon): 25.5 µM | TGI (IGROV1 ovarian): 31.3 µM | TGI (K-562 leukemia): 35 µM | TGI (KM12 colon): 25.4 µM | TGI (LOX IMVI melanoma): 19 µM | TGI (M14 melanoma): 18.3 µM | TGI (MALME-3M melanoma): 7.41 µM | TGI (MCF7 breast): 41.3 µM | TGI (MDA-MB-231 breast): 24.3 µM | TGI (MDA-MB-435): 13.6 µM | TGI (MDA-N): 14.5 µM | TGI (MOLT-4 leukemia): 5.45 µM | TGI (NCI-H226 lung): 34.7 µM | TGI (NCI-H23 lung): 37.2 µM | TGI (NCI-H460 lung): 23.7 µM | TGI (NCI-H522 lung): 19.1 µM | TGI (NCI/ADR-RES ovarian): 46.3 µM | TGI (OVCAR-3 ovarian): 16.9 µM | TGI (OVCAR-4 ovarian): 21.8 µM | TGI (OVCAR-5 ovarian): 12.6 µM | TGI (OVCAR-8 ovarian): 24.4 µM | TGI (PC-3 prostate): 18.4 µM | TGI (RPMI-8226 leukemia): 30.9 µM | TGI (RXF 393 renal): 24.2 µM | TGI (SF-268 CNS): 19.9 µM | TGI (SF-295 CNS): 31.8 µM | TGI (SF-539 CNS): 24.5 µM | TGI (SK-MEL-2 melanoma): 22.4 µM | TGI (SK-MEL-28 melanoma): 13.3 µM | TGI (SK-MEL-5 melanoma): 4.82 µM | TGI (SK-OV-3 ovarian): 28.5 µM | TGI (SN12C renal): 5.58 µM | TGI (SNB-19 CNS): 21.4 µM | TGI (SNB-75 CNS): 17.6 µM | TGI (SR leukemia): 21.5 µM | TGI (SW-620 colon): 25.4 µM | TGI (T-47D breast): 37 µM | TGI (TK-10 renal): 27.8 µM | TGI (U251 CNS): 16.8 µM | TGI (UACC-257 melanoma): 15.3 µM | TGI (UACC-62 melanoma): 24.1 µM | TGI (UO-31 renal): 18.3 µM
